ChEMBL document CHEMBL1201862, “PubChem BioAssay data set” (2004)
“And” between values parts separate entries of the source, which are not always exact repeats. Equal entries are not always repeated. The source made the active and inactive calls.

How the values were obtained:
[1] = biological target: Genome polyprotein (dengue virus type 2, UniProt P29990); test: flavivirus cap methylation enzyme inhibition – biochemical, confirmation dose response, primary screen (AID 588689); assay type: functional
Chain of Genome polyprotein (P29990 2492-3391 limits assumed): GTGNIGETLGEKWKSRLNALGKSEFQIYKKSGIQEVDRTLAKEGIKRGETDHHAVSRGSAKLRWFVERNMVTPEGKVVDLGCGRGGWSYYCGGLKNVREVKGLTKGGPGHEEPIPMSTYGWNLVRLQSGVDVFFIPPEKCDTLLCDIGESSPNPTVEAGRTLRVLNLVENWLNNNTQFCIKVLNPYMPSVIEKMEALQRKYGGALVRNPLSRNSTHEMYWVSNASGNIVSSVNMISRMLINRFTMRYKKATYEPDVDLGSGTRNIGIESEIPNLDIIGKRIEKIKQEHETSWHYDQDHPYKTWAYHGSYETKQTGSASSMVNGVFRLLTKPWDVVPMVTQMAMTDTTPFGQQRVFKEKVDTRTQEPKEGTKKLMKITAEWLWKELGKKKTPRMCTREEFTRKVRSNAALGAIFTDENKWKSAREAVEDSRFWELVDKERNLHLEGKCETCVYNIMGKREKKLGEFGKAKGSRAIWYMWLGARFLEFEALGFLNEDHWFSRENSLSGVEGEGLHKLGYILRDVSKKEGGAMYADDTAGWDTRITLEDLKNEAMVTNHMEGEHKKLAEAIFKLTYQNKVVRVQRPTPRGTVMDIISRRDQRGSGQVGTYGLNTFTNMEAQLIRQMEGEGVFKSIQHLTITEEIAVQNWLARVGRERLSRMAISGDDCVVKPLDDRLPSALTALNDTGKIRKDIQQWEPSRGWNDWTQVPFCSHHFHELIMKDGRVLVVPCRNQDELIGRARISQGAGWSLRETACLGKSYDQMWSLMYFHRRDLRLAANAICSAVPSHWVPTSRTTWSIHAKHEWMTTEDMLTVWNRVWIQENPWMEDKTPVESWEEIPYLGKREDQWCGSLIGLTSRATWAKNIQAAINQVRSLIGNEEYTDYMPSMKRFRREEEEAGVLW

[2] = biological target: DNA (cytosine-5)-methyltransferase 1 (Homo sapiens, UniProt P26358); test: inhibition of DNA methylation by DNMT1 – biochemical, fluorescent molecular beacon, confirmation (AID 602386); assay type: functional
Chain of DNA (cytosine-5)-methyltransferase 1 (P26358 whole entry): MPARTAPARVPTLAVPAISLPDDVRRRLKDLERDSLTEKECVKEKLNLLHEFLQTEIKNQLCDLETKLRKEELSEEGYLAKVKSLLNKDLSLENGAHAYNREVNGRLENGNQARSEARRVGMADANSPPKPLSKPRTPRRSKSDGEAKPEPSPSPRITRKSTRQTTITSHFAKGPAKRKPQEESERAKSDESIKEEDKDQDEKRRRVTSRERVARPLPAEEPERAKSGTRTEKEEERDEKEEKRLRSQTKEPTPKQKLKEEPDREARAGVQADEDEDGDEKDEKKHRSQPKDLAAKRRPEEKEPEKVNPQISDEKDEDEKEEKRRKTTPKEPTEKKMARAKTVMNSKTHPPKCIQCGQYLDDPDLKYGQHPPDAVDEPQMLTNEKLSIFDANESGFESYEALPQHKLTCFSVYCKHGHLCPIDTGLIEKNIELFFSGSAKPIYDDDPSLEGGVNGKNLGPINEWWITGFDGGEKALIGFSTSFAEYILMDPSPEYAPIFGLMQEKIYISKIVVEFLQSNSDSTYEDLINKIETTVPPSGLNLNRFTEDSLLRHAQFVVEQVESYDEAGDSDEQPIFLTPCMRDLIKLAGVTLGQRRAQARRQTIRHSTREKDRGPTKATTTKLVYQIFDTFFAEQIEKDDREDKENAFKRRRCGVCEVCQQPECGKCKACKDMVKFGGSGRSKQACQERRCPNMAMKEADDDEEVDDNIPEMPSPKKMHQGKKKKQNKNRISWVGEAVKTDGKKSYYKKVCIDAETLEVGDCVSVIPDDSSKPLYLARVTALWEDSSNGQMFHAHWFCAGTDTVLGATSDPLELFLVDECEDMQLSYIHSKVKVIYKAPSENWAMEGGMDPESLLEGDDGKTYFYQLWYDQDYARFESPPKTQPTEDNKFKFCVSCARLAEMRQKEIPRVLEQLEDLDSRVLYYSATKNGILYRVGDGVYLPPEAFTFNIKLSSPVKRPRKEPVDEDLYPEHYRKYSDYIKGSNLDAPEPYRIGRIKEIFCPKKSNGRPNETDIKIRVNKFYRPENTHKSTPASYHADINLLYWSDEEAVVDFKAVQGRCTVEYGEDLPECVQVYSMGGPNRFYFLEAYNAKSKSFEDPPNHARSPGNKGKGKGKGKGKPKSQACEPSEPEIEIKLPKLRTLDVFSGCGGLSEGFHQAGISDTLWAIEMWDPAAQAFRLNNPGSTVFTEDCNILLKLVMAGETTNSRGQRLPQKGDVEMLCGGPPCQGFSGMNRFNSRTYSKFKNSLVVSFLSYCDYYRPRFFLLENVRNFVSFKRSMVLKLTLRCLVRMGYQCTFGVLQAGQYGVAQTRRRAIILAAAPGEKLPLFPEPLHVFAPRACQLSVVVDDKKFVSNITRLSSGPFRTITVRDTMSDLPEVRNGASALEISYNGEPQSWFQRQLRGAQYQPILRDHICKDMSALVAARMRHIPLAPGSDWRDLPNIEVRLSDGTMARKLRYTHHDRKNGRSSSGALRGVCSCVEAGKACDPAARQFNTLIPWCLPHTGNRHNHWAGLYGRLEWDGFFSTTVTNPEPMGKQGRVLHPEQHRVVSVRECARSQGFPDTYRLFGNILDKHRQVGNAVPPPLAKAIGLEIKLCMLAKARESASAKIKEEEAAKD

[3] = test system: H9c2; test: cells; assay type: functional, cell-based; conditions: Rattus norvegicus, H9c2, Myocardium;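 further: confirmatory concentration-response retest of ultra-high-throughput screening hits for modulation of myocardial damage; cell death induced by hydrogen peroxide oxidative stress; compound pretreatment for 60 min then peroxide exposure for 2 h; potency is for protecting the cells against peroxide damage rather than for killing them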
[4] = biological target: T1, ATP-dependent translocase ABCB1 (Homo sapiens, UniProt P08183); test: inhibition of BCRP-mediated JC-1 efflux – Ig-MXP3 cells, flow cytometry, set 2, dose response (AID 504566); assay type: functional; conditions: read-out: EC50_MICROM_;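 further: flow cytometry median green fluorescence of retained JC-1 dye; potency of efflux pump inhibition measured as rising substrate retention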
T1 sequence (P08183 whole entry): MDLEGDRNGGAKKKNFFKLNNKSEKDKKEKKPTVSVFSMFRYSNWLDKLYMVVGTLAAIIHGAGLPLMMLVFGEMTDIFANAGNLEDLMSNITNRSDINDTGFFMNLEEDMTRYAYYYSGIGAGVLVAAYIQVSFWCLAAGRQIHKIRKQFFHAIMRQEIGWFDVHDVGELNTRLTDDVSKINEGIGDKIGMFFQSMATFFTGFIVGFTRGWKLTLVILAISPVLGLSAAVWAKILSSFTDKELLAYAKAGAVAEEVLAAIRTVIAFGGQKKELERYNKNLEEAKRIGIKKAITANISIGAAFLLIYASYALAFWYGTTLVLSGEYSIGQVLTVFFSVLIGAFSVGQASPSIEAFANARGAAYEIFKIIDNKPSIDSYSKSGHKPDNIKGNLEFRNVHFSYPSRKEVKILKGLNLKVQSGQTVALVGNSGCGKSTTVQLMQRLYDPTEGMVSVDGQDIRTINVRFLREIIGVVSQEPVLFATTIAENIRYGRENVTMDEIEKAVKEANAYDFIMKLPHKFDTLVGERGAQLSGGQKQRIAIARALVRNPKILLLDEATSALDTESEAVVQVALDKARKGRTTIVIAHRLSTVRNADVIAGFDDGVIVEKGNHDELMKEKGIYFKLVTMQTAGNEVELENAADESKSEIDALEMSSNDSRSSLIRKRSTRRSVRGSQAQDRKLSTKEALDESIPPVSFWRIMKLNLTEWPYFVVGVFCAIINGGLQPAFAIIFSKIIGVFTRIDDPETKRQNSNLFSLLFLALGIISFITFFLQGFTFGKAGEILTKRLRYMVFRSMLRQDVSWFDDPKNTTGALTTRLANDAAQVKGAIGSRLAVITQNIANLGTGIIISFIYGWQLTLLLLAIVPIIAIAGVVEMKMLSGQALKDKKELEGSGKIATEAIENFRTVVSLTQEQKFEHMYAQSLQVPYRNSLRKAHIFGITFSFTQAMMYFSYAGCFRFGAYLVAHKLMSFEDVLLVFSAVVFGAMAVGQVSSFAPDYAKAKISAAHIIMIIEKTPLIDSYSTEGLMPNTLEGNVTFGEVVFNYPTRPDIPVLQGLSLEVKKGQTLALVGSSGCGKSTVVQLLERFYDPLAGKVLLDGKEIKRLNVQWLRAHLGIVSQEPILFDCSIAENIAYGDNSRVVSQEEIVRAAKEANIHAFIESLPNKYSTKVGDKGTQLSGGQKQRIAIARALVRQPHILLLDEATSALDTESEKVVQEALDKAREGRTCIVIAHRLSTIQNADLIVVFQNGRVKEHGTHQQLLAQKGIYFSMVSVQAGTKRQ

[5] = biological target: T1, ATP-dependent translocase ABCB1; test: P-gp JC-1 efflux blockade concentration-response – Jurkat-DNR cells, flow cytometry, set 2, dose response (AID 504569); assay type: functional; conditions: read-out: EC50_MICROM_;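 further: potency of pump inhibitors that raise cellular JC-1 green fluorescence up to the nicardipine level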
[6] = biological target: T2, COUP transcription factor 2 (Homo sapiens, UniProt P24468); test: Luminescence-based cell-based high throughput dose response assay to identify inhibitors of COUP-TFII (NR2F2).; assay type: functional;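 further: HEK293 cells transiently cotransfected with COUP-TFII expression vector and reporter; luciferase reporter luminescence driven by COUP-TFII from the pX2-168 reporter plasmid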
T2 sequence (P24468 whole entry): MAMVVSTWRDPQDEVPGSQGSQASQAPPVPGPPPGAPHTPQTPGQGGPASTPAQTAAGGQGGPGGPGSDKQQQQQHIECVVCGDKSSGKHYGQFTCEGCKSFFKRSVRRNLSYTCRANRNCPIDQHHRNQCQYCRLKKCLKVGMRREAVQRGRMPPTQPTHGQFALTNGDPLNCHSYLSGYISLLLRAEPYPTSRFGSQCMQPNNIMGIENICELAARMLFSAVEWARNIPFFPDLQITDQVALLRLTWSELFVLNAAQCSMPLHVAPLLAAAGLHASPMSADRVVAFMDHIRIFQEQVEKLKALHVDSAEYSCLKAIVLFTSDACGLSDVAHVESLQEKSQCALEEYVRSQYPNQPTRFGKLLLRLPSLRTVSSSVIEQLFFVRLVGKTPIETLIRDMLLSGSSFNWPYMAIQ

[7] = A549 cell cytotoxicity, dose response, cytotoxicity control, plate reader, cherry-pick, antagonist series (AID 743412); assay type: functional, cell-based
[8] = toxicity toward HepG2 liver cells – cell-based, plate reader, cherry-pick, antagonist series, cytotoxicity control, dose response (AID 743416); assay type: functional
[9] = blockers of bursicon-stimulated LGR2 cAMP reporter – cell-based, HEK293, CRE-luciferase reporter, cherry pick, set 2, dose response (AID 743343); assay type: functional;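 further: transfected cells were stimulated with diluted bursicon conditioned medium after compound addition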
[10] = blockade of melanocortin 4 receptor signaling – cell-based, plate reader, cherry pick, counter-screen for LGR2 antagonist project, dose response (AID 743444); assay type: functional;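 further: transfected HEK 293 cells stimulated with alpha-MSH peptide; potency of inhibitors of the alpha-MSH evoked signal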
[11] = viability loss in HEK293 cells – cell-based, plate reader, cherry-picked samples, cytotoxicity control, dose response (AID 743446); assay type: functional
[12] = biological target: Melanin-concentrating hormone receptor 1 (Homo sapiens, UniProt Q99705); test: Late-stage fluorescence-based counterscreen for antagonists of the G-protein coupled receptor 7 (GPR7): cell-based dose response assay to identify antagonists of the melanin-concentrating hormone receptor 1 (MCHR1) Set 6.; assay type: functional
Chain of Melanin-concentrating hormone receptor 1 (Q99705 whole entry): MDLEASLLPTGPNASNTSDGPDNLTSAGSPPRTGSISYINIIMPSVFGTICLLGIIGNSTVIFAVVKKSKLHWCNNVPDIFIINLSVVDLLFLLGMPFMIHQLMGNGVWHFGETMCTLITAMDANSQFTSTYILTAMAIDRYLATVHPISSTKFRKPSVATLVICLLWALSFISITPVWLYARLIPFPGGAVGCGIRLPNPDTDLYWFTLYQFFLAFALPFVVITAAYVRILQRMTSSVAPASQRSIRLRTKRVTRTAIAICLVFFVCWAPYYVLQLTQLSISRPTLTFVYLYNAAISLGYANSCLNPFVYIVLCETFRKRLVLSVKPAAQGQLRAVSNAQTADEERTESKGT

[13] = biological target: T3, Neuropeptides B/W receptor type 1 (Homo sapiens, UniProt P48145); test: human NPBW1 receptor blockade, IC50 – cell-based, fluorescence, dose response, set 6, late-stage follow-up (AID 588583); assay type: functional
T3 sequence (P48145 whole entry): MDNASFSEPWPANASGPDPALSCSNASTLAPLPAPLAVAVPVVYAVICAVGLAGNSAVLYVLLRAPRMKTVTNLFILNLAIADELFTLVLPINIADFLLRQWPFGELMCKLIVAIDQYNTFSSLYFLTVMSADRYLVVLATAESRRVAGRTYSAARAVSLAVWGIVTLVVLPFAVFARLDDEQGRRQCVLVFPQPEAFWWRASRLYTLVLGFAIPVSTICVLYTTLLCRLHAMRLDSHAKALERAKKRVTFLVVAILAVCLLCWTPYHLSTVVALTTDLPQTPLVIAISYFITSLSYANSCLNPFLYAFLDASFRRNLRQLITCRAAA

[14] = activation of miR-122 Renilla sensor silencing – cell-based, Huh7 psiCHECK-miR122, Renilla luciferase, cherry-picked, dose response (AID 651956); assay type: functional;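 further: huh7 hepatoma cells stably carrying a psiCHECK-2 miR-122 sensor plasmid; renilla luciferase signal reporting endogenous miR-122 activity after 48 h compound exposure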
[15] = intracellular Trypanosoma cruzi inhibitors in host cells – cell-based, plate reader, cherry-pick samples, set 3, dose response (AID 651818); assay type: functional;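 further: compounds incubated with infected cells for about four days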

Q: Which results are given for `Nc1ccc(S(=O)(=O)Nc2nccs2)cc1N=Nc1ccccc1[N+](=O)[O-]`?
A: IC50 [1]: 64.7 µM (active); IC50 [2]: 7.09 µM (active)

Q: What does the source list for `COc1ccccc1-c1cc2nc(-c3ccccc3)cc(N3CCN(C(=O)c4ccco4)CC3)n2n1`?
A: IC50 [3]: > 79 µM (inactive); EC50 [4]: 940 nM (active); EC50 [5]: 3.41 µM (active); IC50 [6]: 4.17 µM (active); AC50 [7]: 7.34 µM (active); AC50 [8]: 2.29 µM (active); AC50 [9]: 6.6 µM (active); AC50 [10]: 6.15 µM (active); AC50 [11]: 7.31 µM (active)

Q: What does the source list for `CC(C)c1ccc(C(C#N)c2c(Cl)cnn(Cc3cccc4ccccc34)c2=O)cc1` (configuration not stated)?
A: IC50 [12]: 253 nM (active) and 1.62 µM (active); IC50 [13]: 253 nM (active) and 1.62 µM (active)

Q: What does the source list for `CCn1ccc2ccc(Oc3c(Cl)cnn(Cc4cccc5ccccc45)c3=O)cc21`?
A: IC50 [12]: > 20 µM (inactive); IC50 [13]: > 20 µM (inactive)

Q: With `N#Cc1cccc(C(C#N)c2c(Cl)cnn(Cc3cccc4ccccc34)c2=O)c1` (configuration not stated) as the compound, how does the IC50 [12] read?
A: The IC50 was 0.553 µM (active).

Q: What about the IC50 [13] of the same compound?
A: Its IC50 is 0.553 µM (active).

Q: For `Cc1nc2cc(-c3cccc(Cl)c3)nn2c(N2CCN(C(=O)c3ccsc3)CC2)c1C`, which EC50 [4] is on record?
A: Its EC50 is 560 nM (active).

Q: And the EC50 [5]?
A: The EC50 was 4.62 µM (active).

Q: For `CNC(=O)C[C@H]1CC[C@@H]2[C@H](COc3ccc(NC(=O)Nc4ccccc4OC)cc3C(=O)N2C)O1`, which AC50 [14] is on record?
A: The AC50 was 23.1 µM (active).

Q: For `C[C@H]1CN([C@@H](C)CO)C(=O)Cc2cc(NS(=O)(=O)c3ccc(Cl)cc3)ccc2O[C@@H]1CN(C)Cc1ccc(-c2ccccc2)cc1`, which AC50 [15] is on record?
A: Its AC50 is 3.8 µM (active).

Q: With `C[C@@H]1CCCCO[C@@H](CN(C)Cc2ccc(C(F)(F)F)cc2)[C@@H](C)CN([C@H](C)CO)C(=O)c2cc(NC(=O)Nc3ccc(C(F)(F)F)cc3)ccc2O1` as the compound, how does the AC50 [15] read?
A: Its AC50 is 3.49 µM (active).
